Assay results reported in PubChem BioAssay (NCI).
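A five-concentration, 48-hour dose response in 96-well plates underlies each endpoint, interpolated linearly between surrounding concentrations. At the TGI there is no net growth.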

Columns and labels:
Assay in all cases: DTP human tumour cell line panel, 48 h
[1] = test system: SW-620 colon
[2] = test system: COLO 205 colon
[3] = test system: SN12C renal
[4] = test system: SK-OV-3 ovarian
[5] = test system: IGROV1 ovarian
[6] = test system: DMS 273 small cell lung
[7] = test system: SR leukemia
[8] = test system: A498 renal
[9] = test system: OVCAR-4 ovarian
[10] = test system: HCT-116 colon
[11] = test system: SF-268 CNS
[12] = test system: DMS 114 small cell lung
[13] = test system: CCRF-CEM leukemia
[14] = test system: UACC-62 melanoma
[15] = test system: SK-MEL-5 melanoma
[16] = test system: OVCAR-8 ovarian
[17] = test system: OVCAR-5 ovarian
[18] = test system: K-562 leukemia
[19] = test system: MALME-3M melanoma
[20] = test system: NCI-H522 lung
[21] = test system: OVCAR-3 ovarian
[22] = test system: U251 CNS
[23] = test system: M19-MEL melanoma
[24] = test system: DLD-1 colon
[25] = test system: NCI-H23 lung
[26] = test system: SNB-19 CNS
[27] = test system: KM20L2 colon
[28] = test system: KM12 colon
[29] = test system: SNB-78 CNS
[30] = test system: HL-60(TB) leukemia
[31] = test system: M14 melanoma
[32] = test system: LXFL 529 NSCLC
[33] = test system: 786-0 renal
[34] = test system: NCI-H460 lung
[35] = test system: HOP-62 NSCLC
[36] = test system: UACC-257 melanoma
[37] = test system: HCC-2998 colon
[38] = test system: CAKI-1 renal
[39] = test system: HCT-15 colon
[40] = test system: ACHN renal
[41] = test system: HOP-92 NSCLC
[42] = test system: TK-10 renal
[43] = test system: SF-539 CNS
[44] = test system: RPMI-8226 leukemia
[45] = test system: SK-MEL-28 melanoma
[46] = test system: UO-31 renal
[47] = test system: SF-295 CNS
[48] = test system: NCI-H226 lung
[49] = test system: LOX IMVI melanoma
[50] = test system: A549 NSCLC
[51] = test system: SNB-75 CNS
[52] = test system: RXF 393 renal
[53] = test system: EKVX NSCLC
[54] = test system: HT29 colon
[55] = test system: MOLT-4 leukemia
[56] = test system: NCI/ADR-RES ovarian
[57] = test system: BT-549 breast
[58] = test system: SK-MEL-2 melanoma
[59] = test system: DU-145 prostate
[60] = test system: MCF7 breast
[61] = test system: HS 578T breast
[62] = test system: PC-3 prostate
[63] = test system: T-47D breast
[64] = test system: MDA-MB-435
[65] = test system: MDA-MB-231 breast
[66] = test system: MDA-N

Measured: TGI

c1ccc(-c2sc(-c3ccccc3)c3c2C(c2ccccc2)c2c(-c4ccccc4)sc(-c4ccccc4)c2C3c2ccccc2)cc1 (stereo not drawn)
> 100 µM: [1] | [2] | [3] | [4] | [5] | [6] | [7] | [8] | [9] | [10] | [11] | [12] | [13] | [14] | [15] | [16] | [17] | [18] | [19] | [20] | [21] | [22] | [23] | [24] | [25] | [26] | [27] | [28] | [29] | [30] | [31] | [32] | [33] | [34] | [35] | [36] | [37] | [38] | [39] | [40] | [41] | [42] | [43] | [44] | [45] | [46] | [47] | [48] | [49] | [50] | [51] | [52] | [53] | [54]

C/C(=N\O)C1CC(CC(=O)O)C1(C)C (stereo not drawn)
> 100 µM: [1] | [2] | [3] | [4] | [5] | [7] | [8] | [9] | [10] | [11] | [55] | [13] | [14] | [15] | [16] | [17] | [18] | [56] | [19] | [20] | [57] | [58] | [21] | [22] | [25] | [26] | [59] | [28] | [60] | [30] | [31] | [33] | [34] | [35] | [36] | [61] | [62] | [37] | [38] | [39] | [63] | [40] | [41] | [42] | [64] | [43] | [44] | [45] | [46] | [47] | [48] | [49] | [65] | [66] | [50] | [51] | [52] | [53] | [54]
